Our source for the IC50 values is patent US6673791B2, “Non-nucleoside reverse transcriptase inhibitors” (Boehringer Ingelheim (Canada) Ltd., priority 2001, dated 2004).

Common to all, as to assay: biochemical
The target in assay [1] is T1, Y188L mutant RT (HIV-1 RT) (Human immunodeficiency virus type 1 group M subtype B, UniProt P03366, Y787L).
T1 construct: mutations that occur in the reverse transcriptase segment of the pol gene
Particulars: IC50 Y188L (nM). The text has this: (§1) Based upon testing of these compounds, as described below, it is known that they inhibit the RNA-dependent DNA polymerase activity of HIV-1 RT. […] Utilising the Reverse Transcriptase (RT) Assay described below, compounds can be tested for their ability to inhibit the RNA-dependent DNA polymerase activity of HIV-1 RT. Certain specific compounds described in the Examples which appear below, were so tested. The results of this testing appear in Table 4 as IC50 (nM) and Table 5 as EC50 (nM).
(§2) Reverse TranscriptASE (RT) Assays
(§3) The assays are as described in WO 01/96338A1, the contents of which are hereby incorporated herein. The results are listed in Tables 8 as IC50(nM) and EC50(nM).

The target in the next assay is T2, WT RT (HIV-1 RT) (Human immunodeficiency virus type 1 group M subtype B, UniProt P03366).
T2 construct: mutations that occur in the reverse transcriptase segment of the pol gene
Source text: as §1, §2, §3

The target in assay [2] is T3, V106A mutant RT (HIV-1 RT) (Human immunodeficiency virus type 1 group M subtype B, UniProt P03366, V705A).
T3 construct: mutations that occur in the reverse transcriptase segment of the pol gene
Source text: as §1, §2, §3

For assay [3], the target named is T4, K103N/Y181C double mutant RT (HIV-1 RT) (Human immunodeficiency virus type 1 group M subtype B, UniProt P03366, K702N/Y780C).
T4 construct: mutations that occur in the reverse transcriptase segment of the pol gene
Source text: as §1, §2, §3

The structures appear in SMILES notation. Read-outs that look alike come from different tables or passages of the source.

In the case of `CCN1c2ncc(CCOc3ccc(C(=O)O)c4ccccc34)cc2C(=O)N(C)c2ccc(C)nc21` [Entry 1003], the IC50 in assay [1] was greater than 1000 nM; on WT RT (HIV-1 RT), less than 0.1 µM; in assay [2] (IC50 V106A (nM)), greater than 1000 nM; in assay [3], 0.1 to 1 µM.
With `CCN1c2ncc(CCOc3ccc(C(=O)O)c4ccccc34)cc2C(=O)Nc2c(C)cc(F)nc21` [Entry 1004], the IC50 is greater than 1000 nM in assay [1], less than 0.1 µM on WT RT (HIV-1 RT), 100 to 1000 nM in assay [2] (IC50 V106A (nM)) and 0.1 to 1 µM in assay [3].
On the same counts, the results for `CCN1c2ncc(CCOc3ccc(C(=O)O)c4ccccc34)cc2C(=O)Nc2c(C)ccnc21` [Entry 1005] are greater than 1000 nM, less than 0.1 µM, 100 to 1000 nM and 0.1 to 1 µM.
On the same counts, the results for `CCN1c2ncc(CCOc3ccc(CC(=O)O)c4ccccc34)cc2C(=O)N(C)c2ccc(C)nc21` [Entry 1011] are greater than 1000 nM, less than 0.1 µM, greater than 1000 nM and 0.1 to 1 µM.
On the same counts, the results for `CCN1c2ncc(CCOc3ccc(CC(=O)O)c4ccccc34)cc2C(=O)Nc2c(C)ccnc21` [Entry 1013] are greater than 1000 nM, less than 0.1 µM, greater than 1000 nM and greater than 1 µM.
On to `CCN1c2ncc(CCOc3ccc(CC(=O)O)c4ccccc34)cc2C(=O)Nc2c(C)cc(F)nc21` [Entry 1014], for which the IC50 in assay [1] is greater than 1000 nM; against WT RT (HIV-1 RT) it was less than 0.1 µM; in assay [2] (IC50 V106A (nM)), 100 to 1000 nM; in assay [3], 0.1 to 1 µM.
At WT RT (HIV-1 RT), `CCN1c2ncc(CCOc3ccc(CC(=O)NN)c4ccccc34)cc2C(=O)N(C)c2ccc(NN)nc21` [Entry 1017] registered an IC50 of less than 0.1 µM.
`CCN1c2ncc(CCOc3ccc(CC(N)=O)c4ccccc34)cc2C(=O)N(C)c2cccnc21` [Entry 1018]: the IC50 was greater than 1000 nM in assay [1], less than 0.1 µM on WT RT (HIV-1 RT), 100 to 1000 nM in assay [2] (IC50 V106A (nM)) and less than 0.1 µM in assay [3].
Turning to `CCN1c2ncc(CCOc3ccc(CCC(=O)O)c4ccccc34)cc2C(=O)Nc2c(C)ccnc21` [Entry 1024], the IC50 in assay [1] was greater than 1000 nM; against WT RT (HIV-1 RT), less than 0.1 µM; in assay [2] (IC50 V106A (nM)) it was 100 to 1000 nM; in assay [3], greater than 1 µM.
The corresponding values for `CCN1c2ncc(CCOc3ccc(CCC(=O)O)c4ccccc34)cc2C(=O)N(C)c2ccc(C)nc21` [Entry 1026] are greater than 1000 nM, less than 0.1 µM, greater than 1000 nM and 0.1 to 1 µM.
The corresponding values for `CCN1c2ncc(CCOc3ccc(CCC(=O)O)c4ccccc34)cc2C(=O)Nc2c(C)cc(F)nc21` [Entry 1027] are greater than 1000 nM, less than 0.1 µM, 100 to 1000 nM and 0.1 to 1 µM.
On the same counts, the results for `CCN1c2ncc(CCOc3ccc(/C=C(\C)C(=O)O)c4ccccc34)cc2C(=O)Nc2c(C)ccnc21` [Entry 1039] are greater than 1000 nM, less than 0.1 µM, 100 to 1000 nM and 0.1 to 1 µM.
Turning to `CCN1c2ncc(CCOc3ccc(/C=C(\C)C(=O)O)c4ccccc34)cc2C(=O)Nc2c(C)cc(F)nc21` [Entry 1041], the IC50 in assay [1] is greater than 1000 nM; on WT RT (HIV-1 RT) it was less than 0.1 µM; in assay [2] (IC50 V106A (nM)) it was 100 to 1000 nM; in assay [3], 0.1 to 1 µM.
The corresponding values for `CCN1c2ncc(CCOc3ccc(CC(C)C(=O)O)c4ccccc34)cc2C(=O)N(C)c2ccc(F)nc21` (stereo not shown) [Entry 1043] are greater than 1000 nM, less than 0.1 µM, greater than 1000 nM and 0.1 to 1 µM.
In the case of `CCN1c2ncc(CCOc3ccc(/C=C/C(=O)O)c4ccccc34)cc2C(=O)N(C)c2cccnc21` [Entry 2013], the IC50 is greater than 1000 nM in assay [1]; greater than 1000 nM in assay [2] (read-out: IC50 V106A); 0.1 to 1 µM in assay [3] (read-out: IC50 K103N/Y181C, K103N/Y181C double mutant RT).
On to `CCN1c2ncc(CCOc3ccc(CC(C)C(=O)O)c4ccccc34)cc2C(=O)N(C)c2cccnc21` (stereo not shown) [Entry 2021], for which the IC50 on WT RT (HIV-1 RT) (wild type RT, read-out: IC50 WT RT) lay within 0.1 to 1 µM.
For the compound `CCN1c2ncc(CCOc3cccc4c3CCCN4C(=O)CC(=O)O)cc2C(=O)N(C)c2cccnc21` [Entry 6002], the IC50 against WT RT (HIV-1 RT) is less than 0.1 µM.
